The values below come from patent US20200048668A1, “BIOLOGICAL PRODUCTION OF ß-LACTONES” (Regents of the University of Minnesota, priority 2018, published 2020).

The target of assay [1] is Xc OleB (Xanthomonas campestris pv. campestris, UniProt Q8PDW8). Briefly: OleB reactions with haloalkanes (GC-FID/MS). The format is biochemical. The conditions noted are these: monitored by GC-FID/MS. Here is the method:
The following haloalkane substrates were dissolved in ethanol to a concentration of 5 mM for testing with Xc OleB: 1-iodobutane, 1,3-diiodobutane,1-chlorobutane, 1-bramopentane, 1-chlorohexane, 1-bromooctane, 1-iodoundecane, and 7-(bromomethyl)pentadecane. Reactions were carried out in glass GC vials contained purified OleB (40 μg) and 10 μL of substrate in 500 μL, of 200 mM NaCl, 20 mM NaPO4 at pH 7.4. Reactions were incubated at room temperature overnight, followed by extraction with tert-butyl methylether (MTBE). The MTBE extract was transferred to a clean GC vial and analyzed by gas chromatography/mass spectrometry (GC/MS Agilent 7890a & 5975c with an Agilent J&W bd-ms1 column 30 m length, 0.25 mm diameter, 0.25 μm film).

Assay [2] deals with ClpP protease of Mycobacterium tuberculosis (Mycobacterium tuberculosis, UniProt P9WPC3+P9WPC5). As to conditions: cited from earlier work.
The target of assay [3] is OleB (Xanthomonas campestris pv. campestris, UniProt Q8PDW8). Nature of the assay: MALDI-TOF of acyl-enzyme intermediate with haloalkane. As to conditions: wild type OleB. The format is binding. How it is done:
To identify an acyl-enzyme intermediate, Matrix Assisted Laser Desorption Ionization (MALDI) was carried out on wild type OleB and OleBD114A proteins that had been reacted with 7-(bromornethyl)pentadecane (TCI). These two substrates contain the reactive bromomethyl group in the middle of a long alkyl chain, thereby mimicking the β-lactone substrate of OleB. Reactions contained 500 μM substrate and 40 μg of OleB in 100 μL of buffer (20 mM NaCl, 5 mM NaPO4, pH 7.4). Reaction were prepared for MALDI using standard C4 ZipTip (Millipore) procedures and spotted on a plate with sinapinic acid. Samples were analyzed on a Bruker Autoflex Speed MALDI-TOF.

In assay [4] the target is T1, pancreatic lipase (Homo sapiens, UniProt P16233).
T1 sequence (P16233 17-465): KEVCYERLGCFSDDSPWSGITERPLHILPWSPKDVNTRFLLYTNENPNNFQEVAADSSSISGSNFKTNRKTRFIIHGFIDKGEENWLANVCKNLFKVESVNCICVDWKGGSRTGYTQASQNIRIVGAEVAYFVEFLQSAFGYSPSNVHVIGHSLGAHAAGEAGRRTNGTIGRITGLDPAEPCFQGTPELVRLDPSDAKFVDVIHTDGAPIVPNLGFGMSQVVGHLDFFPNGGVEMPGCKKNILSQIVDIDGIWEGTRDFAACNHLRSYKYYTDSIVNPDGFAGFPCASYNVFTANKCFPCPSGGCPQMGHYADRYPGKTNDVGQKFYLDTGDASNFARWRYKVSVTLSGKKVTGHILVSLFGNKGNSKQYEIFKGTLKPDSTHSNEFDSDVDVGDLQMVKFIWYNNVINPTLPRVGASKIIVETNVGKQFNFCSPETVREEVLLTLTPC
Nature of the assay: Lipase inhibition by β-lactones in microtiter well plates. It counts as biochemical. As to conditions: FIGS. 13A-E. Here is the method:
Cis and trans-isomers of β-lactones were synthesized and tested separately. […] These reactions were conducted in microtiter well plates so the inhibition of the lipase can be measured in a high-throughput manner such that hundreds or thousands of β-lactones can be rapidly screened. In addition, fatty acyl-CoA substrates can be combined with OleADC and lipase and lipase inhibition can be detected. Moreover, lipase may be substituted with proteasomes, penicillin binding proteins, pathogenic bacteria, or cancer cells and inhibitory activity of one or a plurality of β-lactones detected.

For assay [5], the target named is X. campestris OleB (Xanthomonas campestris pv. campestris, UniProt Q8PDW8). Briefly: OleB reactions with β-lactone followed by 1H-NMR. The format is biochemical. As to conditions: for β-lactone that underwent decarboxylation to cis-olefin: 1.0 mg OleB, overnight, room temperature, 1H-NMR.
Assay [6] has as its target human pancreatic lipase (Homo sapiens, UniProt P16233). The conditions noted are these: cited from earlier work.
Assay [7] has as its target human 20S protease (Homo sapiens, UniProt P28072+P28074+Q99436). The conditions noted are these: cited from earlier work.

Sequence of X. campestris OleB (Q8PDW8 whole entry): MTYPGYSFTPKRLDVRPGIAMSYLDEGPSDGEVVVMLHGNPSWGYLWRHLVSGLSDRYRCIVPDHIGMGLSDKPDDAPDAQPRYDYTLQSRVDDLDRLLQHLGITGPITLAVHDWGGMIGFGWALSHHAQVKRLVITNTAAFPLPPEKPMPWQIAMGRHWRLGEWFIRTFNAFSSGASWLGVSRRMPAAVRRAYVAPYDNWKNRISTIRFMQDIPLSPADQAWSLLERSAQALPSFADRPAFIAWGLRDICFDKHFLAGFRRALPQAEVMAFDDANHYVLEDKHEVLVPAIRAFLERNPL
Sequence of Xc OleB (Q8PDW8 whole entry): as above
Sequence of ClpP protease of Mycobacterium tuberculosis (P9WPC5 whole entry): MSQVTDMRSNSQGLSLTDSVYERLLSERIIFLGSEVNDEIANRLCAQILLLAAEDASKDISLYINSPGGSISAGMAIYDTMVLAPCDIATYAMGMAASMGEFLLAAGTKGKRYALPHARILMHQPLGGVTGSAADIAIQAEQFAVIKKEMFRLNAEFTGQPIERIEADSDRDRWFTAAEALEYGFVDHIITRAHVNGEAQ
Sequence of ClpP protease of Mycobacterium tuberculosis (P9WPC3 whole entry): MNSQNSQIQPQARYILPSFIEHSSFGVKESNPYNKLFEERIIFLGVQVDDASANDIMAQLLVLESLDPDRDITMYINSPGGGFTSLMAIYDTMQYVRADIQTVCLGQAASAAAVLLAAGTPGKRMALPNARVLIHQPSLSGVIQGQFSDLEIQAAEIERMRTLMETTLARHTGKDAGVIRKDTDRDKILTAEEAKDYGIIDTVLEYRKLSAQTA
Sequence of OleB (Q8PDW8 whole entry): as the sequence (Q8PDW8 whole entry) above

For `CCCCBr` [1-bromobutane], the “dehalogenase activity towards haloalkane substrate” value in assay [1] was “No detectable activity”.

Take `CCCCCCBr` [1-bromohexane]: in assay [1], the “dehalogenase activity towards haloalkane substrate” value is “No detectable activity”.

As for `CCCCCl` [1-chlorobutane], the “dehalogenase activity towards haloalkane substrate” value in assay [1] is “No detectable activity”.

For `CCCCCCCl` [1-cholohexane], the “dehalogenase activity towards haloalkane substrate” value in assay [1] is “No detectable activity”.

Regarding `CCCCI` [1-iodobutane], the “dehalogenase activity towards haloalkane substrate” value in assay [1] was “No detectable activity”.

As to `CCCCCCCCCCCI` [1-iodoundecane], the “dehalogenase activity towards haloalkane substrate” value in assay [1] is recorded as “No detectable activity”.

On to `CCCC1OC(=O)C1Cc1ccccc1` (stereo not shown) [3-benzyl, 4-propyl oxetanone], for which the “inhibition of ClpP protease” value in assay [2] is on record as “inhibit the ClpP protease of Mycobacterium tuberculosis”.

`CCCCCCCCC(CBr)CCCCCC` (stereo not shown) [7-(bromomethyl)pentadecane]: in assay [1], the “dehalogenase activity towards haloalkane substrate” value is “No detectable activity”. Moreover, the “acyl-enzyme intermediate formation (mass shift)” value in assay [3] was “forms a stable acyl-enzyme intermediate”.

`CCCCCCCCCCC[C@@H](C[C@@H]1OC(=O)[C@H]1CCCCCC)OC(=O)[C@H](CC(C)C)NC=O` [Orlistat, tetrahydrolipstatin]: in assay [4], the lipase inhibitory activity result is reported as “inhibits pancreatic lipase at nanogram levels”.

As to `CCCCCCCCCC1OC(=O)C1CCCCCCCC` (stereo not drawn) [cis-β-lactone, 3-octyl-4-nonyl-2-oxetanone], the “β-lactone that underwent decarboxylation to cis-olefin” value in assay [5] stood at 47%. The “cis-β-lactone starting material converted to cis-olefin” value came out at 54% in assay [5] (2 mg of OleB) and 63% in assay [5] (4 mg of OleB).

As for `CCCCC/C=C\C/C=C\C[C@@H](C[C@@H]1OC(=O)[C@H]1CCCCCC)OC(=O)[C@H](CC(C)C)NC=O` [lipstatin], in assay [6], the “inhibition of human pancreatic lipase” value was “inhibiting human pancreatic lipase”.

With `CCCCCCCCCC1OC(=O)C1CCCCCCCC` (stereo not drawn) [trans-β-lactone, 3-octyl-4-nonyl-2-oxetanone], the “β-lactone that underwent decarboxylation to cis-olefin” value in assay [5] stood at 4%.

Turning to salinosporamide, in assay [7], the “inhibition of human 20S protease function” value is “inhibit human 20S protease function”.
